Assay results as given in paper PMC12066480, “Optimization of neuron-specific interfering peptides targeting GABAB receptor downregulation for proteolytic stability for conferring neuroprotection in a mouse model of cerebral ischemia” (Frontiers in Pharmacology, 2025).
Ends that are not written are not given here.

Assays:
[1] = test system: cultured neurons (neuron/glia cultures)
[2] = test system: cultured neuron/glia cells
[3] = test system: cultured neurons (neuron/glia cultures); test: Peptide uptake into individual cultured neurons, colocalization immunocytochemistry; conditions: 1 h
[4] = Proteolytic stability in blood serum, Western blot; conditions: peptide stock 1 μg/μL added 1:5, 37°C, 3 independent experiments and one technical replicate (Figures 3A-C)
Description: For testing the resistance of the peptides to proteolytic degradation blood serum was prepared from blood collected from naïve mice decapitated under deep isoflurane anesthesia. The blood samples were allowed to clot at RT for 10–15 min, followed by centrifugation at 2000 g for 10 min and 4°C to separate the serum. The serum was stored at −80°C until used.
For testing, a peptide stock solution of 1 μg/μL was added directly to the serum in a ratio of 1:5 and incubated at 37°C for different times. After incubation, the mixture was diluted 1:4 with PBS and the samples were incubated with 2x Laemmli sample buffer (Bio-Rad) for 1 h at 37°C. The samples were subjected to tricine-sodium dodecyl sulfate-polyacrylamide gel electrophoresis (SDS-PAGE) using 1 mm thick 16% gels modified for the detection of small peptides as described by ([Too et al., 1994]).
Proteins were transferred onto 0.1 μm nitrocellulose membranes, previously coated with a solution of 0.5% gelatine ([Too et al., 1994]), in a semi-dry transfer cell (Trans-Blot SD; Bio-Rad) for 70 min at 10 V. After transfer, the blots were immediately incubated in 4% PFA for 5 min, thoroughly washed and blocked for 1 h in PBS containing 5% non-fat dry milk at room temperature. Thereafter, the blots were incubated with Alexa Fluor 750-streptavidin overnight at 4°C in PBS containing 5% non-fat dry milk. The blots were washed three times for 10 min with TBST and immunoreactivity was detected by the ODYSSEY CLx scanner (LI-COR Biosciences). For quantification of signal intensity, the images were analyzed with the Image Studio software (LI-COR Biosciences).

Row | Sequence | colocalization with GABAB receptors and neuronal marker NeuN [1] | uptake of truncated RVG peptides (attached to 9R) into cultured neurons, screening [2] | degradation after incubation for up to 72 h in mouse serum [4] | also measured
1 | FTNSRGKRRRRRRRRRR [Figure 2A peptide 5] | selectively taken up by neurons | retained neuron-specific uptake | – | –
2 | GTPCDIFTRRRRRRRRR [Figure 2A peptide 4] | selectively taken up by neurons | retained neuron-specific uptake | – | peptide uptake into individual neurons by immunocytochemistry ([3]; 10 μg/mL, normalized to peptide 4, 50 neurons per sequence, two independent experiments (Figure 2B)): considerably more efficiently taken up by neurons than the other peptides tested; cell-type selectivity of uptake (NeuN vs GFAP colocalization) ([3]; NeuN, GFAP, DAPI, 3 independent determinations in triplicates (Figure 2C)): lack of uptake by astrocytes
3 | GTPCDIFTRRRRRRRRRFQFTQNQKKEDSKTSTSV [PP2A-Pep] | – | – | did not result in an appreciable degradation | –
4 | GTPCDIFTRRRRRRRRRLQDTPEKTTYIK [CHOP-Pep] | – | – | did not result in an appreciable degradation | –
5 | GTPCDIFTRRRRRRRRRSETQDTMKTGSSTNNNEEEKSR [CaMKII-Pep] | – | – | did not result in an appreciable degradation | –
6 | YTIWMPENPRPGTPCDIFTNSRGKRASNGGGGRRRRRRRRR [Figure 1A peptide 12] | – | – | – | uptake into cultured neuron/glia cells (Figure 1A) [2]: did not affect its uptake into the cultured cells
7 | YTIWMPENRRRRRRRRR [Figure 2A peptide 2] | selectively taken up by neurons | retained neuron-specific uptake | – | –
